Results: US20110212100A1, “METHODS FOR MODULATING DEVELOPMENT AND EXPANSION OF IL-17 EXPRESSING CELLS” (priority 2007, published 2011)

How the values were obtained:
[1] = tested on: AAR pathway in splenocytes; assay: In vivo activation of the AAR pathway in splenocytes of HF-injected mice; set-up: species or system C57B/6 mice; details: 2.5 μg HF i.p., 6 hours post injection
Method: FIG. 20A is a graph depicting splenocytes from control- and HF-treated mice. C57B/6 mice were injected i.p. with vehicle (DMSO) or 2.5 μg HF. Spleens were harvested 6 hours post injection, red blood cells were lysed and total splenocytes were counted. Data are presented as mean cell counts±SD from 2 mice per group.
FIG. 20C is a graph depicting eIF2α expression in control- and HF-treated mice. Splenocytes from mice injected with DMSO or HF as above were harvested 6 hours post injection. Red blood cells were lysed and immunoblotting was performed on whole cell extracts for phosphorylated or total eIF2α as indicated.
FIG. 20D is a graph depicting the results of quantitative real-time PCR (qPCR) experiments performed for AAR-associated gene expression (Asns, Gpt2, eIF4Ebp1) using cDNA generated from splenocytes of mice injected with DMSO or HF as above. Expression of AAR-associated genes were normalized to Hprt levels and data are presented as mean relative expression from duplicate samples±SD.
Studies were conducted to evaluate the effect of HF treatment in mice.

SV-MES mesangial cells = assay: Stress response in fibroblasts (eIF2α western blot); type: cell-based; details: 20 nM HF, 2 hours
Method: SV-MES mesangial cells were stimulated for 2 hours with DMSO, 20 nM MAZ1310 or 20 nM HF. Whole cell lysates were analyzed for expression of phosphorylated or total eIF2α or GCN2 by western blotting.
Western blotting: Whole cell lysates were generated from T cells activated for the indicated times. For STAT3 and Smad2/3 western blots cells were harvested, washed in PBS and lysed in 50 mM Tris, pH 7.4, 0.1% SDS, 1% Triton-X100, 140 mM NaCl, 1 mM EDTA, 1 mM EGTA supplemented with protease inhibitors tablets (Roche-Germany), 1 mM NaF and 1 mM Na3VO4. For eIF2α and ATF4 western blots, cells were harvested as above and lysed in 50 mM Tris, pH 7.4, 2% SDS, 20% glycerol and 2 mM EDTA supplemented with protease and phosphatase inhibitors as above. All lysates were cleared via centrifugation and 15-30 μg of protein was resolved by SDS-PAGE. Protein was transferred to nitrocellulose membranes, blocked and blotted using specific antibodies. Antibodies used for western blot analysis were anti-phospho-Smad2, anti-STAT3 (pY705), anti-STAT3, anti-eIF2α^pS51, anti-eIF2α, anti-GCN2^pT898, anti-GCN2 (all from cell signaling technology, Danvers, Mass.). Anti-ATF4/CREB2 and anti-β-actin were purchased from Santa Cruz biotechnology (Santa Cruz, Calif.). […]

[2] = tested on: B220+ B cells and CD8+ T cells; assay: B cell and CD8+ T cell proliferation and function; type: cell-based, mouse
Method: The non-specific effects of HF on B and CD8+ T cells were evaluated. B220+ B cells or CD8+ T cells were isolated from the spleen and peripheral lymph nodes of C57B/6 mice. B cell proliferation and IL-6 production was induced by culturing the cells with LPS (0.5 μg/ml) for 4 days. The effects of HF on B cell function was determined by adding titrating amounts of HF (1.25 nM-40 nM) at the time of LPS stimulation. B cell proliferation was monitored by labeling cells with Carboxyfluorescein diacetate, succinimidyl ester (CFSE; 5 μM) prior to LPS stimulation and determining the rate of CFSE dilution after 4 days by flow cytometric analyses. LPS-induced IL-6 production by B cells was determined by intracellular staining on day 4, following PMA+Ionomycin+Brefeldin A re-stimulation as described above. For CD8+ T cell experiments, purified CD8+ T cells were labeled with CFSE as above and the T cells were activated using anti-CD3 (1 μg/ml) and anti-CD28 (1 μg/ml) antibodies. […] CD8+ T cell proliferation was determined by monitoring CFSE dilution on day 3-post activation; CD25 expression was determined by FACS staining on day 2 of culture; differentiation of CD8+ T cells into cytolytic T cells (CTL) was evaluated on day 4 by determining expression of IFNγ and granzyme B following PMA+Ionomycin+Brefeldin A re-stimulation. […]

[3] = human, in vivo; cited from earlier work

With O=C(CC1NCCCC1O)Cn1cnc2cc(Br)c(Cl)cc2c1=O (racemic) [HF, 7-bromo-6-chloro-3-[3-(3-hydroxy-2-piperidinyl)-2-oxopropyl]-4(3H)-quinazolinone] the “eIF2α phosphorylation and AAR-associated gene expression in splenocytes, in words” value [1] was “rapidly activates eIF2α phosphorylation and AAR-associated gene expression”, the “eIF2α phosphorylation in SV-MES mesangial cells, in words” value (SV-MES mesangial cells) was “increased eIF2α phosphorylation” and the “dose at which B and CD8+ T cells were profoundly impaired in proliferation and function” value [2] was “greater than 20 nM”. The “effect on B and CD8+ T cell function or proliferation, in words” value ([2]; doses lower than 10 nM) was “little or no effect” and the “HF in serum during topical treatment, in words” value [3] was “undetectable in serum”.
